The values below are quoted from earlier work in patent US20230310343A1 (priority 2020, published 2023).

Like-named read-outs stand apart in the source and are kept apart here.

In series [1] the test system is herpes simplex virus 1 (HSV-1). The following applies: for selectivity index: HSV-1; for reduction of viral multiplication: HSV-1-infected cells.
The test system of series [2] is infectious bronchitis virus (IBV).
Series [3] concerns the target N-terminus of the N protein (Avian infectious bronchitis virus, UniProt P69596). The following applies: IBV N protein.
A further series has as its target hemagglutinin (Influenza A virus, UniProt P03452).
[4] abbreviates: after penetration of the virus into the cell.
The mark [5] stands for this setting: before the virus has entered the cell.

Sequence of N-terminus of the N protein (P69596 31-156 limits assumed): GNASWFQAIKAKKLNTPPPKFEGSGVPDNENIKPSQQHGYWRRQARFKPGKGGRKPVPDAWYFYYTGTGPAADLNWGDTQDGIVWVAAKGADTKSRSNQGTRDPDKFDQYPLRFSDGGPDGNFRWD
Sequence of hemagglutinin (P03452 18-342 limits assumed): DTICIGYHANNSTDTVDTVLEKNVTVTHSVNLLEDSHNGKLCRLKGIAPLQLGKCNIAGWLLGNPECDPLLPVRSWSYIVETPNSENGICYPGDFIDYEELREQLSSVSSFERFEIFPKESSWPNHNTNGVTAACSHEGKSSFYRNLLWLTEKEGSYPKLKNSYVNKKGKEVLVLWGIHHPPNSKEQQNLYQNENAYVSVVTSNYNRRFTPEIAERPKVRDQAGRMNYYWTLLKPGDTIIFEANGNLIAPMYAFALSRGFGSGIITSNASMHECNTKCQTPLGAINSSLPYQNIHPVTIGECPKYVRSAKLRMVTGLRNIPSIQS
Sequence of hemagglutinin (P03452 344-565 limits assumed): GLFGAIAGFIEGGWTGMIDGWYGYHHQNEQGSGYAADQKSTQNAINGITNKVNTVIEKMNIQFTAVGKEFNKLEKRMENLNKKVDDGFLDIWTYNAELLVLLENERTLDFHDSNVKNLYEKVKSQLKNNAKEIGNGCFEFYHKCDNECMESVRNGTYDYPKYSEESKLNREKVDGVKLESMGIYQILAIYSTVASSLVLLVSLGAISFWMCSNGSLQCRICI

`Cc1ccc(C(C)C)c(O)c1` [thymol]: in series [1], the selectivity index result is on record as “low” and the “reduction of viral multiplication” value is on record as “significantly reduce viral multiplication”.
Turning to `CC(C)=CCC/C(C)=C/C=O` [citrol], in series [1], the “reduction of viral multiplication” value was “significantly reduce viral multiplication”.
For `C=CCc1ccc(O)c(OC)c1` [eugenol], the “effectiveness against influenza (H1N1)” value in the series on influenza (H1N1) virus (liquid phase) and with influenza (H1N1) virus (vapor phase) was “effective” each time. Besides, in the series on influenza (H1N1) virus (liquid phase), the plaque reduction result is “one hundred”.
On to `Cc1ccc(C(C)C)cc1` [cymene], for which the “reduction of viral multiplication” value in series [1] was “significantly reduce viral multiplication”.
For `C=C1CCC2CC1C2(C)C` (stereo not drawn) [beta-pinene], the “reducing/inhibiting IBV replication” value in series [2] is on record as “inhibit viral replication”.
As to terpinene, the “reduction of viral multiplication” value in series [1] is reported as “significantly reduce viral multiplication”.
In the case of `CC12CCC(CC1)C(C)(C)O2` [cineole, 1,8-cineole], in series [1], the selectivity index result is reported as “low” and the “reduction of viral multiplication” value is on record as “significantly reduce viral multiplication”. Besides, the “binding to the N-terminus of the N protein” value in series [3] is “binds securely”. Also, the “reducing/inhibiting IBV replication” value in series [2] was “highly effective”. Moreover, the “inhibition of IBV” value in series [2] (setting [4]) was “fully effective”. For the same compound, in series [2] (setting [5]), the “inhibition of IBV” value was “moderate effectiveness”.
Regarding `CC1=CCC(O)(C(C)C)CC1` (stereo not drawn) [terpinen-4-ol], the “reduction of viral multiplication” value in series [1] is on record as “significantly reduce viral multiplication”.
Turning to `CC(C)=CCCC(C)CCO` (stereo not drawn) [citronellol], the “effectiveness against influenza (H1N1)” value with influenza (H1N1) virus (liquid phase) is listed as “only partially effective”; with influenza (H1N1) virus (vapor phase) it was “effective”.
With `CC1=CCC2CC1C2(C)C` (stereo not drawn) [alpha-pinene], the “reducing/inhibiting IBV replication” value in series [2] is “inhibit viral replication”.
For the compound pinene, the “reduction of viral multiplication” value in series [1] is “significantly reduce viral multiplication”. Besides, the “binding to the N-terminus of the N protein” value in series [3] is “binds to the N-terminus of the N protein”. For the same compound, the “inhibition of IBV” value in series [2] (setting [4]) is reported as “fully effective”; in series [2] (setting [5]), “moderate effectiveness”. For the same compound, the “inhibition of hemagglutinin activity” value at hemagglutinin was “able to inhibit”.
